Laboratory results reported in PubChem BioAssay (NCI).
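All cell lines were grown in 96-well plates and treated with compound for 48 hours. The concentration for full growth arrest is given as TGI.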

Tests used:
Test in all cases: NCI-60 cell line screen, 48 h
786-0 renal = test system: 786-0 renal
A498 renal = test system: A498 renal
A549 NSCLC = test system: A549 NSCLC
ACHN renal = test system: ACHN renal
BT-549 breast = test system: BT-549 breast
CAKI-1 renal = test system: CAKI-1 renal
CCRF-CEM leukemia = test system: CCRF-CEM leukemia
COLO 205 colon = test system: COLO 205 colon
DU-145 prostate = test system: DU-145 prostate
EKVX NSCLC = test system: EKVX NSCLC
HCC-2998 colon = test system: HCC-2998 colon
HCT-116 colon = test system: HCT-116 colon
HCT-15 colon = test system: HCT-15 colon
HL-60(TB) leukemia = test system: HL-60(TB) leukemia
HOP-62 NSCLC = test system: HOP-62 NSCLC
HOP-92 NSCLC = test system: HOP-92 NSCLC
HS 578T breast = test system: HS 578T breast
HT29 colon = test system: HT29 colon
IGROV1 ovarian = test system: IGROV1 ovarian
K-562 leukemia = test system: K-562 leukemia
KM12 colon = test system: KM12 colon
LOX IMVI melanoma = test system: LOX IMVI melanoma
M14 melanoma = test system: M14 melanoma
MALME-3M melanoma = test system: MALME-3M melanoma
MCF7 breast = test system: MCF7 breast
MDA-MB-231 breast = test system: MDA-MB-231 breast
MDA-MB-435 = test system: MDA-MB-435
MDA-N = test system: MDA-N
MOLT-4 leukemia = test system: MOLT-4 leukemia
NCI-H226 lung = test system: NCI-H226 lung
NCI-H23 lung = test system: NCI-H23 lung
NCI-H460 lung = test system: NCI-H460 lung
NCI-H522 lung = test system: NCI-H522 lung
NCI/ADR-RES ovarian = test system: NCI/ADR-RES ovarian
OVCAR-3 ovarian = test system: OVCAR-3 ovarian
OVCAR-4 ovarian = test system: OVCAR-4 ovarian
OVCAR-5 ovarian = test system: OVCAR-5 ovarian
OVCAR-8 ovarian = test system: OVCAR-8 ovarian
PC-3 prostate = test system: PC-3 prostate
RPMI-8226 leukemia = test system: RPMI-8226 leukemia
RXF 393 renal = test system: RXF 393 renal
SF-268 CNS = test system: SF-268 CNS
SF-295 CNS = test system: SF-295 CNS
SF-539 CNS = test system: SF-539 CNS
SK-MEL-2 melanoma = test system: SK-MEL-2 melanoma
SK-MEL-28 melanoma = test system: SK-MEL-28 melanoma
SK-MEL-5 melanoma = test system: SK-MEL-5 melanoma
SK-OV-3 ovarian = test system: SK-OV-3 ovarian
SN12C renal = test system: SN12C renal
SNB-19 CNS = test system: SNB-19 CNS
SNB-75 CNS = test system: SNB-75 CNS
SR leukemia = test system: SR leukemia
SW-620 colon = test system: SW-620 colon
T-47D breast = test system: T-47D breast
TK-10 renal = test system: TK-10 renal
UACC-257 melanoma = test system: UACC-257 melanoma
UACC-62 melanoma = test system: UACC-62 melanoma
UO-31 renal = test system: UO-31 renal

Question: Which results are given for CCOc1cc(NC(C)=O)ccc1C(=O)NN1C(=O)CSC1c1ccccc1 (stereo not drawn)?
Answer: TGI (786-0 renal): > 100 µM; TGI (A498 renal): > 100 µM; TGI (A549 NSCLC): > 100 µM; TGI (ACHN renal): > 100 µM; TGI (BT-549 breast): > 100 µM; TGI (CAKI-1 renal): > 100 µM; TGI (CCRF-CEM leukemia): > 100 µM; TGI (COLO 205 colon): > 100 µM; TGI (DU-145 prostate): > 100 µM; TGI (EKVX NSCLC): > 100 µM; TGI (HCC-2998 colon): > 100 µM; TGI (HCT-116 colon): > 100 µM; TGI (HCT-15 colon): > 100 µM; TGI (HL-60(TB) leukemia): > 100 µM; TGI (HOP-62 NSCLC): > 100 µM; TGI (HOP-92 NSCLC): > 100 µM; TGI (HS 578T breast): > 100 µM; TGI (HT29 colon): > 100 µM; TGI (IGROV1 ovarian): > 100 µM; TGI (K-562 leukemia): > 100 µM; TGI (KM12 colon): > 100 µM; TGI (LOX IMVI melanoma): > 100 µM; TGI (M14 melanoma): > 100 µM; TGI (MALME-3M melanoma): > 100 µM; TGI (MCF7 breast): > 100 µM; TGI (MDA-MB-231 breast): > 100 µM; TGI (MDA-MB-435): > 100 µM; TGI (MDA-N): > 100 µM; TGI (MOLT-4 leukemia): 58.2 µM; TGI (NCI-H226 lung): > 100 µM; TGI (NCI-H23 lung): > 100 µM; TGI (NCI-H460 lung): > 100 µM; TGI (NCI-H522 lung): > 100 µM; TGI (NCI/ADR-RES ovarian): > 100 µM; TGI (OVCAR-3 ovarian): > 100 µM; TGI (OVCAR-4 ovarian): > 100 µM; TGI (OVCAR-5 ovarian): > 100 µM; TGI (OVCAR-8 ovarian): > 100 µM; TGI (PC-3 prostate): > 100 µM; TGI (RPMI-8226 leukemia): > 100 µM; TGI (RXF 393 renal): > 100 µM; TGI (SF-268 CNS): > 100 µM; TGI (SF-295 CNS): > 100 µM; TGI (SF-539 CNS): > 100 µM; TGI (SK-MEL-2 melanoma): > 100 µM; TGI (SK-MEL-28 melanoma): > 100 µM; TGI (SK-MEL-5 melanoma): > 100 µM; TGI (SK-OV-3 ovarian): > 100 µM; TGI (SN12C renal): > 100 µM; TGI (SNB-19 CNS): > 100 µM; TGI (SNB-75 CNS): > 100 µM; TGI (SR leukemia): > 100 µM; TGI (SW-620 colon): > 100 µM; TGI (T-47D breast): > 100 µM; TGI (TK-10 renal): > 100 µM; TGI (UACC-257 melanoma): > 100 µM; TGI (UACC-62 melanoma): > 100 µM; TGI (UO-31 renal): > 100 µM
